Laboratory results taken from US9376449B2, “Indole carboxamide derivative” (Astellas Pharma Inc., priority 2012, dated 2016).

Assays:
isolated urethra = assay: Isolated urethra contractile action; set-up: species or system rat; conditions: test compound at 1 μM; contractile response by 10 μM phenylephrine as 100%; SD female rat urethra; read-out: Isolated urethra contraction (%)
Description: Test Example 2 Isolated Urethra Contractile Action
(1) Evaluation Test on Urethra Contractile Action of Test Compound Using Isolated Urethra
The urethra was isolated from an SD female rat having a body weight of 100 to 500 g. The isolated urethra was incised longitudinally to give a rectangular strip specimen having a width of about 3 mm, which was suspended in the circular muscle direction in 10 mL of a tissue bath filled with a Krebs-Henseleit solution (pH 7.4). The Krebs-Henseleit solution was bubbled with 95% O2 and 5% CO2, and kept at 37° C. The resting tension was set to 0.5 g to record the isometric contraction. After the resting tension was stabilized, contraction was elicited by the addition of 10 μM phenylephrine. After washing and stabilizing, the test compound was added cumulatively to a final concentration of −12 to −5 log M to measure a contractile response. By taking the contractile response by 10 μM phenylephrine as 100%, the ratio of the contractile response in the concentration of the test compound at 1 μM was calculated.
(§1) Ex represents Example No. of the test compound.

[1] = CNS penetration: CSF to plasma unbound concentration ratio in rat; type: in vivo; conditions: CSF and plasma (unbound), iv, 15 minutes after intravenous administration, CCSF/Cplasma,u, read-out: Kp,uu,CSF,iv15min
Description: Test Example 4 Test for Evaluating CNS Penetration
(1) Measurement of Unbound Fraction (fp) in Rat Plasma
A test compound (100 μg/mL, 50% acetonitrile solution) at 1% (v/v) with respect to the amount of the plasma was added to rat plasma, and dispensed to a sample for a supernatant and a sample for the plasma. The sample for a supernatant was ultracentrifuged at 436,000×g and 37° C. for 140 minutes, and the sample for the plasma was incubated at 37° C. for 140 minutes.
After 140 minutes, the sample for a supernatant after the ultracentrifugation and the sample for the plasma were taken, and mixed with the blank plasma or the blank supernatant, respectively. Acetonitrile including an internal standard material was added to each of the samples, and after the centrifugation at 2150×g and 4° C. for 10 minutes the supernatant was injected into LC-MS/MS.
The unbound fraction in the plasma was calculated by the following equation.
(wherein fp: an unbound fraction in the plasma and D: a dilution rate of the plasma. fu,app=peak area ratio of supernatant sample/peak area ratio of the plasma sample, and peak area ratio=peak area of test compound/peak area of internal standard material).
(2) The CSF to Plasma Unbound Concentration Ratio in Rat
A 50% acetonitrile solution and an acetonitrile including internal standard material was added to the collected plasma or CSF. After centrifugation at 4° C. and 2150×g for 10 minutes, the supernatant was injected into LC-MS/MS, and the total concentration of the test compound in the plasma (Cplasma,t) and the concentration of the test compound in CSF (CCSF) were obtained. The unbound concentration in the plasma (Cplasma,u) of the test compound and the CSF-to plasma unbound concentration ratio (Kp,uu,CSF) of the test compound was calculated by the following equation.
as §1

human MT2 receptor = target: T1, human MT2 receptor (Homo sapiens, UniProt P49286); assay: Activation of human MT2 receptor in receptor-expressing HEK293 cells (intracellular Ca2+, FLIPR); type: cell-based
T1 sequence (P49286 1-362): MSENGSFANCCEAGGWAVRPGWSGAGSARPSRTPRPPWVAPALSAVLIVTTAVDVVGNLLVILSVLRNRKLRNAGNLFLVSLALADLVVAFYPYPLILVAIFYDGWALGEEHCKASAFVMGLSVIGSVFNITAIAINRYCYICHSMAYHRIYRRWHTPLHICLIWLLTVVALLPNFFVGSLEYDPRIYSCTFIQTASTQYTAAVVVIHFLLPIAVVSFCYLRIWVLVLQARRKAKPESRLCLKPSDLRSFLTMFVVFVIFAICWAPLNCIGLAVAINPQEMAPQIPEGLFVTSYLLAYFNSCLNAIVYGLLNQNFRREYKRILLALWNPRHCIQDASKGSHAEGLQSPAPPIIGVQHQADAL
Description: (§2) (1) Isolation of Human MT1 and MT2 Receptor and Construction of Expression Vector
(§3) A human MT1 receptor gene (GenBank Accession No.: NM_005958.3) and a human MT2 receptor gene (GenBank Accession No.: NM_005959.3) were each introduced into an expression vector pCDNA3.1/Zeo (Invitrogen, Inc.).
(§4) (2) Construction of Cells Stably Expressing Human MT1 and Human MT2 Receptor
(§5) The introduction was carried out according to the attached instructions, using a Lipofectoamine (registered trademark) 2000 Reagent (Invitrogen, Inc.). Zeocin and hygromycin were used as a resistant drug, and the cell was incubated for 15 days at 0.02 mg/mL and 0.05 mg/mL, respectively, thereby acquiring drug-resistant clones.
(§6) (3) Measurement of Intracellular Ca^2+ Concentration by FLIPR (Registered Trademark)
(§7) The respective stably expressing cells were dispensed into 96-well poly-D-lysine-coated plates (Falcon Co.) to 40,000 cells/well the day before the experiment, and incubated overnight in a DMEM (Invitrogen, Inc.) medium including 10% FBS at 37° C. and 5% CO2. The medium was replaced with a loading buffer (washing solution (Hank's balanced salt solution (HBSS), 20 mM HEPES-NaOH, 2.5 mM probenecid) including Fluo-4AM (Dojindo Co.) at 4 μM), and incubated for 1 hour at 37° C. and 5% CO2. Thereafter, the cells were washed with a plate washer (ELx405, BIO-TEK Instrument, Inc.) set with the washing solution, and set in an intracellular Ca^2+ concentration measuring systems (FLIPR (registered trademark), Molecular Device Co.). The test compound was dissolved in the washing solution in advance, diluted to a final concentration of −12 to −5 log M, set in a FLIPR (registered trademark) device together with the cells, and added to the cells in the device. At this time, a change in the intracellular Ca^2+ concentrations was measured.
as §1

urethral pressure = assay: Effect of test compound on urethral pressure in anesthetized rats; type: in vivo, rat; conditions: 0.1 mg/kg intravenously, urethane-anesthetized SD female rats
Excerpt: Test Example 3 Test to Evaluate Effect of Test Compound on Urethral Pressure
It has been reported that an increase in the urethra pressure is useful for the treatment of urinary incontinence, particularly stress urinary incontinence (for example, Drugs, 64, 14, 1503-1516 (2004)). In order to confirm whether the compound of the present invention increases the urethra pressure and thus is useful for the treatment of urinary incontinence, particularly stress urinary incontinence, the following tests were carried out.
SD female rats were anesthetized with urethane and subjected to laparotomy. Then, the bladder apex was incised and a catheter was inserted from the bladder apex. Further, the catheter tip was ligated and fixed to be located in the proximal urethra portion. The catheter was connected to a pressure transducer and an infusion pump. Further, a catheter for administrating the compound was fitted into the femoral vein. Physiological saline was continuously infused into the urethra and the perfusion pressure in the urethra was measured. After the urethral pressure was stabilized, the test compound that had been dissolved in physiological saline, or physiological saline including 5% dimethylacetamide and 0.5% Cremophor was administered intravenously at 0.1 mg/kg, and a change in urethral pressures was measured.
Further, the results of administering an active metabolite of midodrine (ST-1059: purchased from CHEMIZON) (J. Urology, 118, 980-982 (1977)) which is an α1 adrenoceptor agonist and has an effect on stress urinary incontinence in rat doses (0.01 mg/kg) presumed to correspond to the clinical doses are referenced and shown in the Tables below. The increment value in the urethra pressures of ramelteon and the Example compounds of the present invention at the time of administration are shown in Table 4. Ex represents Example No. of the test compound.

3T3 = assay: In vitro 3T3 NRU phototoxicity test; type: cell-based
Description: Test Example 6 Drug Pharmacokinetic Test, Safety Pharmacology Test, and Toxicity Test
Using some Example compounds of the present invention, a drug Pharmacokinetic test, a safety pharmacology test, and a toxicity test were carried out.
(iii) For the toxicity test, for example, an in vitro phototoxicity test was carried out. The evaluation of the in vitro phototoxicity test was carried out in accordance with Guidance for industry photosafety testing, Center for Drug Evaluation and Research Food and Drug Administration, 2003, which is a guideline of FDA (U.S. Food and Drug Administration), and Note for guidance on photosafety testing (CPMP/SWP/398/01, 2002) which is a guideline of EMA (European Medicines Agency), and the method described in OECD guideline for testing of chemicals 432: In vitro 3T3 NRU phototoxicity test, 2004, which is a test method described in the report of OECD.

human MT1 receptor = human MT1 receptor (Homo sapiens, UniProt P48039); assay: Activation of human MT1 receptor in receptor-expressing HEK293 cells (intracellular Ca2+, FLIPR); type: cell-based
human MT1 receptor, sequence (P48039 whole entry): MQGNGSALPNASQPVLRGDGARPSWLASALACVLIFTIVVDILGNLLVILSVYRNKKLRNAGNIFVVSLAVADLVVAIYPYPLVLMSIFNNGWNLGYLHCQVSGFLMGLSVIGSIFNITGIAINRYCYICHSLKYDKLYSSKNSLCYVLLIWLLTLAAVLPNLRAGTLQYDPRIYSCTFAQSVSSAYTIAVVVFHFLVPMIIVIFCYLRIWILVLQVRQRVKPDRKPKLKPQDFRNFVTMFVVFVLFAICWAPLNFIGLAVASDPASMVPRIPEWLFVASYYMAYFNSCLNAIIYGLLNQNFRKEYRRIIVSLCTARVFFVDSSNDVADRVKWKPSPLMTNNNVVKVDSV
Description: as §2, §3, §4, §5, §6, §7, §1

Kp uu at 0.25 h [1] | Emax (human MT2 receptor; HEK293, maximum reaction by ramelteon taken as 100%, solvent only 0%) [%] | EC50 (human MT2 receptor; HEK293 cells stably expressing human MT2 and Gq/i chimeric G-protein, intracellular Ca2+ by FLIPR) [nM] | Emax (human MT1 receptor; HEK293, maximum reaction by ramelteon taken as 100%, solvent only 0%, read-out: MT1 Emax (%)) [%] | EC50 (human MT1 receptor; HEK293 cells stably expressing human MT1 and Gq/i chimeric G-protein, intracellular Ca2+ by FLIPR) [nM] | melting point [°C] | SMILES | activation at 1 µM (isolated urethra) [%] | Increment value in the urethra pressures (mmHg) (urethral pressure) | phototoxicity action (3T3)
0.07 | 103 | 17 | 104 | 5.4 |  | CNC(=O)c1[nH]c2cc(F)c(OC)cc2c1CCNC(=O)C(F)F [Ex 15] | 261 | 8.6 ± 0.9 | no phototoxicity action
 |  |  |  |  | 209 to 212 | CNC(=O)c1[nH]c2cc(F)c(OC)cc2c1CCNC(C)=O [Ex 56, 3-(2-acetamidoethyl)-6-fluoro-5-methoxy-N-methyl-1H-indole-2-carboxamide] |  |  | 
 |  |  |  |  | 196 to 200 | CNC(=O)c1[nH]c2cc(F)c(OC)cc2c1CCNC(=O)C(F)F [Ex 57, 3-{2-[(difluoroacetyl)amino]ethyl}-6-fluoro-5-methoxy-N-methyl-1H-indole-2-carboxamide] |  |  | 
